The text below walks through data of patent publication US8288552B2, “Dihydropyridone amidesas P2X7 modulators” (Roche Palo Alto LLC, priority 2008, dated 2012).

SMILES strings stand for the structures.

For this experiment, the target named is T1, P2X7 (UniProt Q99572).
T1 sequence (Q99572 1-595): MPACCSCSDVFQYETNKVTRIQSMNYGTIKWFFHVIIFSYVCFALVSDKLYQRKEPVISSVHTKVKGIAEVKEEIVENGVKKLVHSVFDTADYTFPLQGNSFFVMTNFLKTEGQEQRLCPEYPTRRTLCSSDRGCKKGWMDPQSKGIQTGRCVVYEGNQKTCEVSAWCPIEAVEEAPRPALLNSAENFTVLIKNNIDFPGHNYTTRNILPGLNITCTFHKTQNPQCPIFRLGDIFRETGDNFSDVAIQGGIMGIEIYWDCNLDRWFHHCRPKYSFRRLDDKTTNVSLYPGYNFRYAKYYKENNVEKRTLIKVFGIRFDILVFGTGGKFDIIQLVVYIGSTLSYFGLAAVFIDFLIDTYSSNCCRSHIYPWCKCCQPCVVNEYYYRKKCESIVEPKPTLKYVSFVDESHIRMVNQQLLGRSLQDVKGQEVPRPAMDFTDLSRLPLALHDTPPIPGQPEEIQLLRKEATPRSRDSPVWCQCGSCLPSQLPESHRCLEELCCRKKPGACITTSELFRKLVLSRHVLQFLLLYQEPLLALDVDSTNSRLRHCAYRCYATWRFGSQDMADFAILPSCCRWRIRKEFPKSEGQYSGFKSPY
As to the kind of experiment: P2X7 pKi of Table 1. The class given is cell-based. As for the experimental part: Intracellular Calcium Flux (FLIPR) Assay
Compound and Reagent Preparation
Stock solutions of compounds were prepared from powders as a 10 mM DMSO stock solution. These solutions were stored at RT during the two week period of these experiments to prevent freeze-thaw of the DMSO stocks. The DMSO stocks were added to the appropriate assay buffer at a concentration of 10 μM, and then diluted serially to the final concentrations that were tested. […] The aqueous solutions of compounds as well as ATP (Sigma A7699) and BzATP (Sigma B6396) were prepared fresh for each day of experiment.
1321N1 cells stably expressing the full length human P2X7 gene (1321N1-hP2X7) and HEK293 cells stably expressing the full length rat P2X7 gene (HEK293-rP2X7) were obtained from the Roche Cell Culture Facility. 1321N1-hP2X7 cells were grown in Dulbecco's Modified Eagle's Medium (DMEM) high glucose supplemented with 10% FBS and 250 μg/mL G418. HEK293-rP2X7 cells were grown in DMEM/F-12 supplemented with 10% FBS, 1 mM CaCl2, 2 mM MgCl2, 2 mM L-Glutamine and 500 μg/ml G418. Cells were split such that they never became >70% confluent.
Intracellular Calcium Flux (FLIPR)
On the day prior to the experiment, 1321N1-hP2X7 or HEK293-rP2X7 cells were released into suspension with calcium-free PBS+Versene and washed by centrifugation with calcium-free PBS to remove the Versene. Cells were resuspended in growth medium at a density of 2.5×10^5 cells/mL and seeded into black walled, clear bottom 96 well plates (50,000 cells/well) approximately 18 hr prior to intracellular calcium flux experiments.
On the day of the experiment, plates were washed with FLIPR buffer (calcium- and magnesium-free Hank's Balanced Salt Solution (HBSS) supplemented with 10 mM Hepes, 2.5 mM probenecid and 2 mM calcium chloride) using a BIO-TEK 96 channel plate washer and incubated with […] fluo-3 dye at 37° C. for one hr. The dye was then removed by plate washing and the cells were allowed to equilibrate for 20 min at room temperature with antagonist or vehicle (FLIPR buffer). Agonist (100 μM BzATP final concentration for hP2X7; 5 μM BzATP final concentration or rP2X7) was added online with the FLIPR and fluorescence measurements made at 1 sec intervals for 60 sec followed by 3 sec intervals for a further 4 min (5 min total). A final addition of 5 μM ionomycin was made and the maximal BzATP-evoked fluorescence normalized to the maximal ionomycin-evoked fluorescence.
For orientation: pKi means the negative decadic logarithm of the Ki, by convention in mol/L. Lower therefore signals a high Ki. `Cc1cccc(NC(=O)C2=CNC(=O)CC2c2ccc(F)cc2)c1C` (stereo not drawn) [Compound 37, 4-(4-Fluoro-phenyl)-6-oxo-1,4,5,6-tetrahydro-pyridine-3-carboxylic acid(2,3-dimethyl-phenyl)-amide]: the pKi is given as 7.12.

`COC[C@@H](O)COc1cc(NC(=O)C2=CN(C)C(=O)C[C@H]2c2cccc(F)c2)c(C)cc1Cl` [Compound 149, (S)-4-(3-Fluoro-phenyl)-1-methyl-6-oxo-1,4,5,6-tetrahydro-pyridine-3-carboxylic acid[4-chloro-5-((S)-2-hydroxy-3-methoxy-propoxy)-2-methyl-phenyl]-amide] came in with a negative logarithm of the Ki (pKi) of 6.035. The result for `Cc1cc(Cl)c(CN(CCO)CCO)cc1NC(=O)C1=CNC(=O)C[C@H]1c1ccc(F)cc1` [Compound 124, (S)-4-(4-Fluoro-phenyl)-6-oxo-1,4,5,6-tetrahydro-pyridine-3-carboxylic acid(5-{[bis-(2-hydroxy-ethyl)-amino]-methyl}-4-chloro-2-methyl-phenyl)-amide] reads 6.75. The result for `Cc1cc(Cl)c(OCC(C)O)cc1NC(=O)C1=CNC(=O)C[C@H]1c1cccc(F)c1` (stereo partly drawn) [Compound 116, (S)-4-(3-Fluoro-phenyl)-6-oxo-1,4,5,6-tetrahydro-pyridine-3-carboxylic acid[4-chloro-5-(2-hydroxy-propoxy)-2-methyl-phenyl]-amide] reads 7.21. In the case of `CCc1cc(Cl)c(OC)cc1NC(=O)C1=CNC(=O)C[C@H]1c1ccc(F)cc1` [Compound 118, (S)-4-(4-Fluoro-phenyl)-6-oxo-1,4,5,6-tetrahydro-pyridine-3-carboxylic acid(4-chloro-2-ethyl-5-methoxy-phenyl)-amide], the negative logarithm of the Ki (pKi) is reported as 7.075. The pKi values of the last two compounds are within 0.2 log units of each other. Take `O=C1C[C@@H](c2cccc(F)c2)C(C(=O)Nc2cc(OCCO)c(Cl)cc2Br)=CN1` [Compound 78, (S)-4-(3-Fluoro-phenyl)-6-oxo-1,4,5,6-tetrahydro-pyridine-3-carboxylic acid[2-bromo-4-chloro-5-(2-hydroxy-ethoxy)-phenyl]-amide]: the pKi amounted to 7.695. The result for `O=C1C[C@@H](c2ccc(F)cc2)C(C(=O)Nc2cccc(Cl)c2Cl)=CN1` [Compound 128, (S)-4-(4-Fluoro-phenyl)-6-oxo-1,4,5,6-tetrahydro-pyridine-3-carboxylic acid (2,3-dichloro-phenyl)-amide] reads 6.75; that for `COc1cc(C)c(C)c(NC(=O)C2=CNC(=O)C[C@H]2c2ccc(F)cc2)c1` [Compound 113, (S)-4-(4-Fluoro-phenyl)-6-oxo-1,4,5,6-tetrahydro-pyridine-3-carboxylic acid(5-methoxy-2,3-dimethyl-phenyl)-amide], 8.035; that for `Cc1cc(Cl)c(OCCO)cc1NC(=O)C1=CNC(=O)C[C@@H]1c1cccc(F)c1` [Compound 71, (R)-4-(3-Fluoro-phenyl)-6-oxo-1,4,5,6-tetrahydro-pyridine-3-carboxylic acid[4-chloro-5-(2-hydroxy-ethoxy)-2-methyl-phenyl]-amide], 6.815. Then `COc1cc(Br)c(NC(=O)C2=CNC(=O)CC2c2ccccc2)cc1OC` (stereo not drawn) [Compound 1, 6-Oxo-4-phenyl-1,4,5,6-tetrahydro-pyridine-3-carboxylic acid(2-bromo-4,5-dimethoxy-phenyl)-amide], with 7.4925. Regarding `Cc1ccc(C)c(NC(=O)C2=CNC(=O)C[C@H]2c2ccc(F)cc2)c1` [Compound 56, (S)-4-(4-Fluoro-phenyl)-6-oxo-1,4,5,6-tetrahydro-pyridine-3-carboxylic acid (2,5-dimethyl-phenyl)-amide], the pKi came to 6.56. Turning to `COC[C@@H](O)COc1cc(NC(=O)C2=CN(C)C(=O)C[C@H]2c2ccc(F)cc2)c(C)cc1Cl` [Compound 147, (S)-4-(4-Fluoro-phenyl)-1-methyl-6-oxo-1,4,5,6-tetrahydro-pyridine-3-carboxylic acid[4-chloro-5-((S)-2-hydroxy-3-methoxy-propoxy)-2-methyl-phenyl]-amide], the pKi is on record as 5.85.
